The target of assay [1] is T1, human Cereblon WT GST-tagged protein (Homo sapiens, UniProt Q96SW2).
T1 construct: purchased CISBIO 64BDCRBNPEH
Nature of the assay: CRBN-binding affinity, HTRF (CEREBLON BINDING kit). The settings on record: for inhibition at 0.5 µM: read-out: Inhibition Rate at 0.5 µM (%); for inhibition at 2 µM: read-out: Inhibition Rate at 2 µM (%). On the technique in general: TR-FRET usually uses a lanthanide donor and a delayed reading to cut background.

For assay [2], the system named is Human multiple myeloma cell (MM.1S). The assay is described as follows: Tumor cell proliferation inhibition (CellTiter-Meiluncell luminescent cell viability assay). The following applies: for inhibition at 0.01 µM / inhibition at 0.5 µM: Homo sapiens, MM1.S, 96 h; for inhibition at 0.01 µM: read-out: Inhibition Rate at 10 nM (%); for inhibition at 0.5 µM: read-out: Inhibition Rate at 500 nM (%).
Protocol: (§1) The tumor cells used herein were cultured in a cell culture medium listed in table 2 at 37°C in an incubator with 5% CO2. Prior to experimentation, all cell lines used were correctly identified by STR profiling, and tested negative for mycoplasma contamination using a mycoplasma detection kit through routine screenings.
(§2) The IC50 values of the compounds of the present disclosure (including the compounds in Table 1 and Examples) were determined using the CellTiter-Meiluncell Luminescent Cell Viability Assay Kit from Dalian Meilun Biotech Co., Ltd. The detailed procedure is as follows: Tumor cells were seeded in 96-well cell culture plates at the densities specified in Table 3. On the following day, the test compounds of the present disclosure were subjected to serial dilution. The dilution can be performed according to one of the following two methods: • (1) The first dilution method: The test compounds of the present disclosure (including the compounds in Table 1 and Examples) were subjected to 5-fold serial dilutions starting from a highest concentration of 2000 µM, resulting in a total of 9 concentrations from high to low (2000, 400, 80, 16, 3.2, 0.64, 0.128, 0.0256, 0.00512 µM). Subsequently, 0.5 µL of the test compound dilution was transferred into the 96-well plate containing the cells, with each well containing 100 µL of cell culture medium. […] Into the 96-well plate, the diluted test compounds and corresponding detection reagents were added, resulting in final test compound concentrations of 500 nM and 10 nM, respectively. The experimental procedure is described below using the diluted 2 µM test compound as an example.
(§3) 0.5 µL of the aforementioned diluted compound of the present disclosure (including the compounds in Table 1 and Examples) was added to the seeded cells in 100 µL of medium, yielding a final test compound concentration of 10 nM. After the cells were treated with the compounds of the present disclosure for a specified period, the cell viability assay reagent was added to the culture medium according to the kit's instructions to determine cell viability. […] All controls were treated using the same procedure as the compounds of the present disclosure. The growth inhibition curves for the compounds of the present disclosure were plotted using Prism GraphPad software, and the IC50 values were calculated therefrom.

Another assay addresses T2, WEE1 (Homo sapiens, UniProt P30291+Q96SW2).
T2 construct: effects of the compounds of the present disclosure on the expression of target proteins in cells; endogenous in cells; host or cells: human PBMCs (Milecell Biotechnologies)
Nature of the assay: Western blot, degradation of substrate protein in hPBMCs. The class given is cell-based.

A further assay addresses T3, IKZF2 (Homo sapiens, UniProt Q96SW2+Q9UKS7).
T3 construct: effects of the compounds of the present disclosure on the expression of target proteins in cells; endogenous in cells; host or cells: human PBMCs (Milecell Biotechnologies)
The description is as above. The class given is cell-based.

The next assay concerns the target T4, IKZF3 (Homo sapiens, UniProt Q96SW2+Q9UKT9).
T4 construct: effects of the compounds of the present disclosure on the expression of target proteins in cells; endogenous in cells; host or cells: human PBMCs (Milecell Biotechnologies)
Described as above. The class given is cell-based.

A further assay has as its target T5, CK1α (Homo sapiens, UniProt P48729+Q96SW2).
T5 construct: effects of the compounds of the present disclosure on the expression of target proteins in cells; endogenous in cells; host or cells: human PBMCs (Milecell Biotechnologies)
Described as above. The class given is cell-based.

A further assay addresses T6, IKZF1 (Homo sapiens, UniProt Q13422+Q96SW2).
T6 construct: effects of the compounds of the present disclosure on the expression of target proteins in cells; endogenous in cells; host or cells: human PBMCs (Milecell Biotechnologies)
The description is as above. Type of assay: cell-based.

In a further assay the test system is GSPT1. The description is as above. Type of assay: cell-based, Human.
The subject of assay [3] is Human myeloid monocytic leukemia cell (MV-4-11). The assay is described as follows: Tumor cell proliferation inhibition (CellTiter-Meiluncell luminescent cell viability assay). The following applies: MV4-11, 96 h; for inhibition at 0.01 µM: read-out: Inhibition Rate at 10 nM (%); for inhibition at 0.5 µM: read-out: Inhibition Rate at 500 nM (%).
Protocol: as §1, §2, §3
Setting [4] is: Western blot, 24 hours of compound treatment, compounds tested at 50 nM and 500 nM (concentration for the table not stated).
Where [5] appears, read: 24 hours treatment, compounds at 50 nM and 500 nM (concentration behind the class not stated).

The record followed here is patent publication EP4745135A1 (Gluetacs Therapeutics (Shanghai) Co., Ltd., priority 2023, dated 2025).

T4 sequence (Q9UKT9 whole entry): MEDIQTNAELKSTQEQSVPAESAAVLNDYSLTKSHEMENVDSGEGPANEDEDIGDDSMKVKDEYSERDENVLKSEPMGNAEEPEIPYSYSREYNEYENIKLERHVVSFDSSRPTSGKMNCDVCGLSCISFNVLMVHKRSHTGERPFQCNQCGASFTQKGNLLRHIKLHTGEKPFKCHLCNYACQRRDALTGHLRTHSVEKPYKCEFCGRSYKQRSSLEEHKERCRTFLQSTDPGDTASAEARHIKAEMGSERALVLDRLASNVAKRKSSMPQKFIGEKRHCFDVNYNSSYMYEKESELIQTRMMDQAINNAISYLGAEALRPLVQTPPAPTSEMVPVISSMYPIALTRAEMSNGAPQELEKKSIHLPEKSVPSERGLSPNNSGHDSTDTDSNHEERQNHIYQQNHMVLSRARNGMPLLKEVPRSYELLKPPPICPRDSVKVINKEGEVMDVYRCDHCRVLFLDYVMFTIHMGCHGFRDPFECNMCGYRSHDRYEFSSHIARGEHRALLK
T4 sequence (Q96SW2 whole entry): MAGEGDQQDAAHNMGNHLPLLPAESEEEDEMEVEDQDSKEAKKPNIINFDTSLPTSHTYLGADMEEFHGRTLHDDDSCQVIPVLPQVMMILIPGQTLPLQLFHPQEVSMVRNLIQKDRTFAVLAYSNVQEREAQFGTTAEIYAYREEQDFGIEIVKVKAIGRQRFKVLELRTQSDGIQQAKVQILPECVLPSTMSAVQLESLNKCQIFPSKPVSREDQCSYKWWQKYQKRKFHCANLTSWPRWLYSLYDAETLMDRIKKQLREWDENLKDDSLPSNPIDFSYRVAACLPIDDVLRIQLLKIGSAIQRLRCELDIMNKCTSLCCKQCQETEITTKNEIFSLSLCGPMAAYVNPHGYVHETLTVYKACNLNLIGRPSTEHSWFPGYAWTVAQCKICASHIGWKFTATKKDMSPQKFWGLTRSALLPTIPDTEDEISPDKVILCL
T4 sequence (Q16531 whole entry partner): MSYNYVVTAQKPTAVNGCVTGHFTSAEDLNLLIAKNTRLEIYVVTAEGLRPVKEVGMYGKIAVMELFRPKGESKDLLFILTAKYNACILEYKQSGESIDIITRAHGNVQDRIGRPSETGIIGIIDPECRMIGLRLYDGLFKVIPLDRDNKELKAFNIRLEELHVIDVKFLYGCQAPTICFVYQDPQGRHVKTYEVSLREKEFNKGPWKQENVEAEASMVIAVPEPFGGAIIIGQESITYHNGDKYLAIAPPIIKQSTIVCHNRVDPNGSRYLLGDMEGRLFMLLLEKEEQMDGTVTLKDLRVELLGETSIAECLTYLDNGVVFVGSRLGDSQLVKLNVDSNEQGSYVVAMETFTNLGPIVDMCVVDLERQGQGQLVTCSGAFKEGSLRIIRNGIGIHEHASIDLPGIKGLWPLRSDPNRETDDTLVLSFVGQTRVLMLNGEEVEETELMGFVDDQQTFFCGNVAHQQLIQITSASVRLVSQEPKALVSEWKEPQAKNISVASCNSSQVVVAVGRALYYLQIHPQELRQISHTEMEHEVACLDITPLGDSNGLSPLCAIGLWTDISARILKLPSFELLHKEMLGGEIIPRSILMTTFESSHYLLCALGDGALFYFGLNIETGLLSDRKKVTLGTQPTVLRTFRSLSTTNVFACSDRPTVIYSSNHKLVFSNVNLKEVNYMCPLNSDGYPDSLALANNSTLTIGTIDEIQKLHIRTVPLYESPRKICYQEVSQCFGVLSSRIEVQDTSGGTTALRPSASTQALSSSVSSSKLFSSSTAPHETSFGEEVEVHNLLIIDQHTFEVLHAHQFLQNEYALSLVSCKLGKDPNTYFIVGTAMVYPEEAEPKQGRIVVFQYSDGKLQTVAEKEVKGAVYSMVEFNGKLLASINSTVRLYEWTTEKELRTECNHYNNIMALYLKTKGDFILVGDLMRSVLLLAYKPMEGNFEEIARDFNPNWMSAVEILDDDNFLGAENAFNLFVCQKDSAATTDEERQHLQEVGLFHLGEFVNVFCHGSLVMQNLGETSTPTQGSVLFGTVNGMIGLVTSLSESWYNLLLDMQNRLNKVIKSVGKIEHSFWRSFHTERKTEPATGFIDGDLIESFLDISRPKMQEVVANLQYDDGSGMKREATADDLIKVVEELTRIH
T3 sequence (Q9UKS7 whole entry): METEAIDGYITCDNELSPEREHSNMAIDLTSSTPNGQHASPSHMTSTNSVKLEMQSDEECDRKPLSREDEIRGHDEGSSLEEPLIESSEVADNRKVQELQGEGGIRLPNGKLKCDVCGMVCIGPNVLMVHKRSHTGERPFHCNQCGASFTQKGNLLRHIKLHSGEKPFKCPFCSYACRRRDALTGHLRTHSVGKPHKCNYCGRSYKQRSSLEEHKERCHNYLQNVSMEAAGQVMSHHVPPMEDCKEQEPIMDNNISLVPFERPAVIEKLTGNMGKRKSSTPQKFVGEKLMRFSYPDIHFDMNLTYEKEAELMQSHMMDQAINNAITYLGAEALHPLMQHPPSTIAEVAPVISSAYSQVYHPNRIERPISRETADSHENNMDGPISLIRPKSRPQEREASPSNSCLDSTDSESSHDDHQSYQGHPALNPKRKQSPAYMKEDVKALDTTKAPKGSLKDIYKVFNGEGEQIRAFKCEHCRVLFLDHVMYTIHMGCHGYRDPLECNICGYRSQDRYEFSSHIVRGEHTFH
T3 sequence (Q96SW2 whole entry): as the sequence (Q96SW2 whole entry) above
T3 sequence (Q16531 whole entry partner): as the sequence (Q16531 whole entry partner) above
T5 sequence (P48729 whole entry): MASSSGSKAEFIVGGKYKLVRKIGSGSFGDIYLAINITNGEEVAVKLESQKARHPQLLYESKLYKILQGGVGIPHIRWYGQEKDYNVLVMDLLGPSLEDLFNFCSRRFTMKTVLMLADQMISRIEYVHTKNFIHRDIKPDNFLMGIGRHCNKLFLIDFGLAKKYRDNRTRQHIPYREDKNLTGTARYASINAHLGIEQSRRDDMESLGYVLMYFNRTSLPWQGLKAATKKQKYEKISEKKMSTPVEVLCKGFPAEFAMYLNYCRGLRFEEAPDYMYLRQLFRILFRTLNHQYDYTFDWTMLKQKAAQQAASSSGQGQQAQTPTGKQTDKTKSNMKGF
T5 sequence (Q96SW2 whole entry): as the sequence (Q96SW2 whole entry) above
T5 sequence (Q16531 whole entry partner): as the sequence (Q16531 whole entry partner) above
T1 sequence (Q96SW2 whole entry): as the sequence (Q96SW2 whole entry) above
T6 sequence (Q13422 whole entry): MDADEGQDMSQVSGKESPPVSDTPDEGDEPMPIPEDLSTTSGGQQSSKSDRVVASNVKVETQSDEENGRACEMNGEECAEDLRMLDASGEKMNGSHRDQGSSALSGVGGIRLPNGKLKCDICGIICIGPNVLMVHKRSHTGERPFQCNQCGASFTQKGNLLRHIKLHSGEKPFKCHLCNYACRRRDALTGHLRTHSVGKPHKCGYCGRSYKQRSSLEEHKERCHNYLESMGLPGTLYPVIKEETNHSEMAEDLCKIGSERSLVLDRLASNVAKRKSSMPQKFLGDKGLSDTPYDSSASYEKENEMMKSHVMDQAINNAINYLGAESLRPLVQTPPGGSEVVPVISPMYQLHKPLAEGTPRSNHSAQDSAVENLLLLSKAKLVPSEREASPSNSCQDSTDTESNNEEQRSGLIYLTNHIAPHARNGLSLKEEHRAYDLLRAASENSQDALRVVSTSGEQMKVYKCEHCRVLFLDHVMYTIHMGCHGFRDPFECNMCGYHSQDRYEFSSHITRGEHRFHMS
T6 sequence (Q96SW2 whole entry): as the sequence (Q96SW2 whole entry) above
T6 sequence (Q16531 whole entry partner): as the sequence (Q16531 whole entry partner) above
T2 sequence (P30291 whole entry): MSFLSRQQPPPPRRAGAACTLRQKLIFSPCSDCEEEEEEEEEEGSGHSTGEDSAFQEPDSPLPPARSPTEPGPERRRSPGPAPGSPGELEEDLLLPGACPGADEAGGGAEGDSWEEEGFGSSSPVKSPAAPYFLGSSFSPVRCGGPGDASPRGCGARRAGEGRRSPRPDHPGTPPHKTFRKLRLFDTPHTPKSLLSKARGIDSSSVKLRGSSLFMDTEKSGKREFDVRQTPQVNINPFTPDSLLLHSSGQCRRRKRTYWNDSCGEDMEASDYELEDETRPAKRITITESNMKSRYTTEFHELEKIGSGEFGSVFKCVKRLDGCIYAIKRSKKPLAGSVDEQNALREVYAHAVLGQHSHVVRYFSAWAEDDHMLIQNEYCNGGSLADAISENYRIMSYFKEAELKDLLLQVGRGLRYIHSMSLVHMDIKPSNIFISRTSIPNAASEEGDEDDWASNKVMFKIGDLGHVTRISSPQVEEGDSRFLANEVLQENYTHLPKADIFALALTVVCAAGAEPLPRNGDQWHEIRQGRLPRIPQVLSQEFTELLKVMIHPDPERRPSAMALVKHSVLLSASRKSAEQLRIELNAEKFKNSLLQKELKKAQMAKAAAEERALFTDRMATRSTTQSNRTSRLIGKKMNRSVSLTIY
T2 sequence (Q96SW2 whole entry): as the sequence (Q96SW2 whole entry) above
T2 sequence (Q16531 whole entry partner): as the sequence (Q16531 whole entry partner) above

For orientation: inhibition means the relative decrease from the control value, in per cent. In the case of `O=C1CCC(N2Cc3c(CN4C[C@@H]5C[C@H]4CN5c4cccc(Cl)c4Cl)cccc3C2=S)C(=O)N1` (stereo partly drawn) [GT-08468, 3-(4-(((1S,4S)-5-(2,3-dichlorophenyl)-2,5-diazabicyclo[2.2.1]heptan-2-yl)methyl)-1-thioxoisoindolin-2-yl)piperidine-2,6-dione], in assay [1], the inhibition at 0.5 µM lay within 40 to 53% and the inhibition at 2 µM lay in the range of 80 to 100%. Besides, in assay [2], the inhibition at 0.01 µM is 40 to 50% and the inhibition at 0.5 µM is 50 to 60%. On WEE1 (setting [4]), the “Wee1 substrate protein remaining %” value is “B (80%< substrate protein remaining %≤ 100%)”. Moreover, the “IKZF2 substrate protein remaining %” value on IKZF2 (setting [4]) is recorded as “B (80%< substrate protein remaining %≤ 100%)”. For the same compound, the “IKZF3 substrate protein remaining %” value on IKZF3 (setting [4]) is reported as “B (80%< substrate protein remaining %≤ 100%)”. The “CK1α substrate protein remaining %” value at CK1α (setting [4]) was “B (80%< substrate protein remaining %≤ 100%)”. For the same compound, the “IKZF 1 substrate protein remaining %” value on IKZF1 (setting [4]) was “B (80%< substrate protein remaining %≤ 100%)”. Moreover, the “GSPT1 substrate protein remaining %” value in the assay on GSPT1 (setting [4]) is “A (0% ≤ substrate protein remaining % ≤ 80%)”. Further, in assay [3], the inhibition at 0.01 µM was 40 to 60% and the inhibition at 0.5 µM fell in the range of 40 to 60%.
In the case of `O=C1CCC(N2Cc3cc(CN4C5CCC4CN(C(c4ccccc4)c4ccccc4)C5)ccc3C2=S)C(=O)N1` (stereo not drawn) [GT-07850, 3-(5-((3-benzhydryl-3,8-diazabicyclo[3.2.1]octan-8-yl)methyl)-1-thioxoisoindolin-2-yl)piperidine-2,6-dione], the inhibition at 0.5 µM in assay [1] lay within 40 to 53%; in [3] it was 40 to 60%. In assay [1], the inhibition at 2 µM lay within 80 to 100%. Further, the results for the inhibition at 0.01 µM in assay [2] and in assay [3] were 30 to 40% and 40 to 60%, respectively. The “Inhibition Rate at 500 nM (%)” value in assay [2] (MM.1S, 500 nM, 96 hours) is “la7”. On WEE1 (setting [4]), the “Wee1 substrate protein remaining %” value is given as “A (0% ≤ substrate protein remaining % ≤ 80%)”. At IKZF2 (setting [4]), the “IKZF2 substrate protein remaining %” value is recorded as “A (0% ≤ substrate protein remaining % ≤ 80%)”. Besides, at IKZF3 (setting [4]), the “IKZF3 substrate protein remaining %” value is “B (80%< substrate protein remaining %≤ 100%)”. Also, the “CK1α substrate protein remaining %” value on CK1α (setting [4]) is reported as “B (80%< substrate protein remaining %≤ 100%)”. At IKZF1 (setting [4]), the “IKZF 1 substrate protein remaining %” value is on record as “B (80%< substrate protein remaining %≤ 100%)”. For the same compound, the “GSPT1 substrate protein remaining %” value with GSPT1 (setting [4]) is recorded as “A (0% ≤ substrate protein remaining % ≤ 80%)”.
In the case of `O=C1CCC(N2Cc3c(CN4CC=C(c5ncnc6sc(-c7ccccc7)cc56)CC4)cccc3C2=S)C(=O)N1` (stereo not drawn) [GT-08956, 3-(4-((4-(6-phenylthieno[2,3-d]pyrimidin-4-yl)-3,6-dihydropyridin-1(2H)-yl)methyl)-1-thioxoisoindolin-2-yl)piperidine-2,6-dione], in [1], the inhibition at 0.5 µM is 53 to 60% and the inhibition at 2 µM was in the range of 60 to 80%. Further, in assay [2], the inhibition at 0.01 µM was 20 to 30% and the inhibition at 0.5 µM lay within 40 to 50%. The “Wee1 substrate protein remaining %” value on WEE1 (setting [5]) was “A (0% ≤ substrate protein remaining % ≤ 80%)”. On IKZF2 (setting [5]), the “IKZF2 substrate protein remaining %” value is listed as “B (80%< substrate protein remaining %≤ 100%)”. The “IKZF3 substrate protein remaining %” value on IKZF3 (setting [5]) is “B (80%< substrate protein remaining %≤ 100%)”. Moreover, the “CK1α substrate protein remaining %” value at CK1α (setting [5]) was “B (80%< substrate protein remaining %≤ 100%)”. Moreover, the “IKZF 1 substrate protein remaining %” value at IKZF1 (setting [5]) is recorded as “B (80%< substrate protein remaining %≤ 100%)”. For the same compound, in the assay with GSPT1 (setting [5]), the “GSPT1 substrate protein remaining %” value was “A (0% ≤ substrate protein remaining % ≤ 80%)”. In [3], the inhibition at 0.01 µM lay within 18 to 25% and the inhibition at 0.5 µM was in the range of 40 to 60%.
As to `O=C1CCC(N2Cc3cc(CN4CCN(c5c(Cl)cncc5Br)CC4)ccc3C2=S)C(=O)N1` (stereo not drawn) [GT-09264, 3-(5-((4-(3-bromo-5-chloropyridin-4-yl)piperazin-1-yl)methyl)-1-thioxoisoindolin-2-yl)piperidine-2,6-dione], in [1], the inhibition at 0.5 µM is 80 to 100% and the inhibition at 2 µM lay in the range of 80 to 100%. Further, in [2], the inhibition at 0.01 µM was 30 to 40% and the inhibition at 0.5 µM lay within 40 to 50%. In addition, the “Wee1 substrate protein remaining %” value on WEE1 (setting [5]) was “B (80%< substrate protein remaining %≤ 100%)”. The “IKZF2 substrate protein remaining %” value at IKZF2 (setting [5]) is “B (80%< substrate protein remaining %≤ 100%)”. For the same compound, the “IKZF3 substrate protein remaining %” value on IKZF3 (setting [5]) is on record as “B (80%< substrate protein remaining %≤ 100%)”. Moreover, the “CK1α substrate protein remaining %” value on CK1α (setting [5]) was “B (80%< substrate protein remaining %≤ 100%)”. At IKZF1 (setting [5]), the “IKZF 1 substrate protein remaining %” value was “B (80%< substrate protein remaining %≤ 100%)”. Further, in the assay on GSPT1 (setting [5]), the “GSPT1 substrate protein remaining %” value is “A (0% ≤ substrate protein remaining % ≤ 80%)”. For the same compound, in assay [3], the inhibition at 0.01 µM fell in the range of 30 to 40% and the inhibition at 0.5 µM was in the range of 40 to 60%.
`O=C1CCC(N2Cc3cc(CN4CCN(c5ccc(Br)cc5)CC4)ccc3C2=S)C(=O)N1` (stereo not drawn) [GT-08600, 3-(5-((4-(4-bromophenyl)piperazin-1-yl)methyl)-1-thioxoisoindolin-2-yl)piperidine-2,6-dione]: in assay [1], the inhibition at 0.5 µM fell in the range of 53 to 60% and the inhibition at 2 µM fell in the range of 80 to 100%. In assay [2], the inhibition at 0.01 µM fell in the range of 30 to 40% and the inhibition at 0.5 µM lay within 60 to 70%. Besides, the “Wee1 substrate protein remaining %” value on WEE1 (setting [4]) is “B (80%< substrate protein remaining %≤ 100%)”. Further, at IKZF2 (setting [4]), the “IKZF2 substrate protein remaining %” value is recorded as “B (80%< substrate protein remaining %≤ 100%)”. Further, the “IKZF3 substrate protein remaining %” value at IKZF3 (setting [4]) is listed as “B (80%< substrate protein remaining %≤ 100%)”. Further, at CK1α (setting [4]), the “CK1α substrate protein remaining %” value is listed as “B (80%< substrate protein remaining %≤ 100%)”. In addition, the “IKZF 1 substrate protein remaining %” value on IKZF1 (setting [4]) is given as “B (80%< substrate protein remaining %≤ 100%)”. In the assay on GSPT1 (setting [4]), the “GSPT1 substrate protein remaining %” value is on record as “A (0% ≤ substrate protein remaining % ≤ 80%)”. In addition, in assay [3], the inhibition at 0.01 µM lay within 40 to 60% and the inhibition at 0.5 µM was 80 to 100%.
Take `O=C1CCC(N2Cc3c(CN4C5CCC4CN(c4cccc(Cl)c4Cl)C5)cccc3C2=S)C(=O)N1` (stereo not drawn) [GT-08471, 3-(4-((3-(2,3-dichlorophenyl)-3,8-diazabicyclo[3.2.1]octan-8-yl)methyl)-1-thioxoisoindolin-2-yl)piperidine-2,6-dione]: in assay [1], the inhibition at 0.5 µM fell in the range of 30 to 40% and the inhibition at 2 µM is 60 to 80%. Further, in assay [2], the inhibition at 0.01 µM is 40 to 50% and the inhibition at 0.5 µM lay in the range of 40 to 50%. The “Wee1 substrate protein remaining %” value at WEE1 (setting [4]) is given as “B (80%< substrate protein remaining %≤ 100%)”. Further, the “IKZF2 substrate protein remaining %” value on IKZF2 (setting [4]) is “B (80%< substrate protein remaining %≤ 100%)”. Further, on IKZF3 (setting [4]), the “IKZF3 substrate protein remaining %” value is reported as “B (80%< substrate protein remaining %≤ 100%)”. Besides, the “CK1α substrate protein remaining %” value on CK1α (setting [4]) was “B (80%< substrate protein remaining %≤ 100%)”. Also, the “IKZF 1 substrate protein remaining %” value at IKZF1 (setting [4]) is “B (80%< substrate protein remaining %≤ 100%)”. Moreover, the “GSPT1 substrate protein remaining %” value in the assay with GSPT1 (setting [4]) was “A (0% ≤ substrate protein remaining % ≤ 80%)”. Also, in assay [3], the inhibition at 0.01 µM is 40 to 60% and the inhibition at 0.5 µM lay within 40 to 60%.
